Like-named read-outs stand apart in the source and are kept apart here.
What was measured:
Des1 [1] = target: T1, Des1 (Homo sapiens, UniProt O15121); experiment: Jurkat T cell measurement of conversion of dihydroceramide to ceramide (Des1 activity, LC-MS/MS of NBD-C6-ceramide); type: cell-based; set-up: Jurkat clone E6-1 cells were grown and then seeded at 10^6 cells/mL in a 96-well plate; endogenous in cells; host or cells: Jurkat clone E6-1; conditions: 0.5 uM compound; Jurkat clone E6-1 cells, 10 μM NBD-C6-dihydroceramide, 3 hours at 37° C.; read-out: Des1 % Inhib (0.5 uM)
T1 sequence (O15121 1-323): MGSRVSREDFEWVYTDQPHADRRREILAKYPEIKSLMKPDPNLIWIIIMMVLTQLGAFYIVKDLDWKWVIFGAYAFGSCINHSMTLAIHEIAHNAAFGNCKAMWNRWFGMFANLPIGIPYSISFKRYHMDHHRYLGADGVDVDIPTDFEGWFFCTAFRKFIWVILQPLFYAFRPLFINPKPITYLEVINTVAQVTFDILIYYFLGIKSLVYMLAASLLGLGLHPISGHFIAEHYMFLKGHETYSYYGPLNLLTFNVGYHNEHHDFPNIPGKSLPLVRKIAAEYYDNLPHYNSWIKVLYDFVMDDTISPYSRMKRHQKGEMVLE
Protocol: (§1) Jurkat T Cell Measurement of Conversion of Dihydroceramide to Ceramide
Jurkat clone E6-1 cells were grown and then seeded at 10^6 cells/mL in a 96-well plate (400 μL in each well. The cells were administered 100 μL of cell culture media containing 50-μM NBD-C6-dihydroceramide (Des1 substrate), affording a final concentration of substrate of 10 μM. The cells were incubated with substrate at 4° C. for 30 minutes. Following the incubation at 4° C., the cell suspension was centrifuged at 1200 rpm for 3 minutes, and the cell pellet is resuspended in 400 μL of fresh media containing various concentrations of either fenretinide (known Des1 inhibitor control compound) or test article. The final concentrations of control compound and test compounds were tested in a range from 0-10 μM. The cells and compounds were incubated at 37° C. for 3 hours. Following the 3-hour incubation, the plate was centrifuged at 2500 g for 3 minutes at 4° C., followed by collection and transfer of 200 μL of the supernatant to a new 96-well plate with 300 μL of methanol an containing appropriate internal standards for liquid chromatography/tandem mass spectroscopy (LC/MS/MS) analysis (internal standard: 500 nM labetalol and 100 nM alprazolam). The samples were vortexed for 2 minutes followed by centrifugation at 3,220 g for 20 minutes. […]

Des1 [2] = target: T1, Des1; experiment: as above; type: cell-based; set-up: endogenous in cells; host or cells: Jurkat clone E6-1; conditions: Jurkat clone E6-1 cells; for inhibition at 0.5 µM: 0.5 uM compound, read-out: Des1 % Inhib (0.5 uM)
Protocol: as §1
Jurkat clone E6-1 cells were grown and then seeded at 10^6 cells/mL in a 96-well plate (400 μL in each well. The cells were administered 100 μL of cell culture media containing 50-μM NBD-C6-dihydroceramide (Des1 substrate), affording a final concentration of substrate of 10 μM. The cells were incubated with substrate at 4° C. for 30 minutes. Following the incubation at 4° C., the cell suspension was centrifuged at 1200 rpm for 3 minutes, and the cell pellet is resuspended in 400 μL of fresh media containing various concentrations of either fenretinide (known Des1 inhibitor control compound) or test article. The final concentrations of control compound and test compounds were tested in a range from 0-10 μM. The cells and compounds were incubated at 37° C. for 3 hours. Following the 3-hour incubation, the plate was centrifuged at 2500 g for 3 minutes at 4° C., followed by collection and transfer of 200 μL of the supernatant to a new 96-well plate with 300 μL of methanol an containing appropriate internal standards for liquid chromatography/tandem mass spectroscopy (LC/MS/MS) analysis (internal standard: 500 nM labetalol and 100 nM alprazolam). The samples were vortexed for 2 minutes followed by centrifugation at 3,220 g for 20 minutes. Following centrifugation, 200 μL of the supernatant was transferred to a new 96-well plate for LC-MS/MS analysis to determine the amount of NBD-C6-ceramide (Des1 product) produced. The assay was typically performed in duplicate. A reduction of at least 30% compared to vehicle control (0 μM test article) is indicative of an active compound, and a reduction of 75% compared to vehicle control is preferred.

CFTR-KO mice = conditions: Guilbault et al. 2008, 2009, cited from earlier work
[3] = test system: insulin-stimulated Akt phosphorylation in C2C12 myotubes; experiment: C2C12 myotube assay of insulin-stimulated phosphorylation of Akt; type: cell-based; conditions: 0.75 mM BSA-conjugated palmitate 16 hours, insulin 100 nM 10 minutes; read-out: half-maximal effective concentration (EC50) for increasing insulin-stimulated Akt phosphorylation in the presence of palmitate
Protocol: C2C12 Myotube Assay of Insulin-Stimulated Phosphorylation of Akt:
C2C12 myotubes are treated with 0.75 mM BSA-conjugated palmitate for 16 hours in the presence or absence of 7 non-zero concentrations of fenretinide (Des1 inhibitor control compound) or various test articles, followed by a 10-minute stimulation with insulin (100 nM). Cells are subsequently harvested and boiled in reducing SDS sample buffer and subjected to SDS-PAGE followed by detection of phosphorylated Akt, total Akt, and a suitable loading control (e.g. actin or GAPDH) by western blot using fluorescently-conjugated secondary antibodies. Band intensities are quantitated by an Odyssey imaging system (Li—COR), but could also be performed using HRP-conjugated secondary antibodies/enhanced chemiluminescence or by colorimetric readout.
Moreover, while currently contemplated for SDS-PAGE/immunoblot format, this assay could be adapted to ELISA or in-cell western (immunocytochemistry) formats for higher throughput testing of compounds. An increase of 30% compared to vehicle control (0 μM test article) is indicative of an active compound, and an increase of 50% compared to control is preferred. […] Des1 inhibitors disclosed herein are expected to be effective in this assay.

[4] = 10 μM NBD-C6-dihydroceramide, 3 hours at 37° C.
[5] = 10 μM NBD-C6-dihydroceramide, 3 hours at 37° C., read-out: Des1 IC50

Structure (SMILES)	inhibition at 0.5 µM (Des1 [2]; [4]) [%]	IC50 (Des1 [2]; [5]) [nM]	further results
O=S(=O)(Nc1ccc(O)cn1)N1CCN(c2ccc(F)cc2)CC1 [Example 72]	–	–	inhibition at 0.5 µM (Des1 [1]): 50.2%
O=C(Nc1ccc(O)cn1)OC1CCN(c2ccc(F)cc2F)CC1 [Example 54, 1-(2,4-difluorophenyl)piperidin-4-yl N-(5-hydroxypyridin-2-yl)carbamate]	–	5	–
O=C(Nc1ccc(O)cn1)N1CCN(c2ncc(F)cc2F)CC1 [Example 79, 4-(3,5-difluoropyridin-2-yl)-N-(5-hydroxypyridin-2-yl) piperazine-1-carboxamide]	93.8	7.6 to 70	–
O=C(Nc1ccc(O)cc1)N1CCN(c2ccc(F)cc2)CC1 [Example 29, 4-(4-fluorophenyl)-N-(4-hydroxyphenyl)piperazine-1-carboxamide]	58.6	–	–
CC1=C(/C=C/C(C)=C/C=C/C(C)=C/C(=O)Nc2ccc(O)cc2)C(C)(C)CCC1 [fenretinide]	–	–	susceptibility to infection with Pseudomonas aeruginosa (CFTR-KO mice; CFTR-KO mice): reduce susceptibility to infection; ratio of lung arachidonic acid (AA) to docosahexaenoic acid (DHA) (CFTR-KO mice; lungs of CFTR-KO mice): normalize this ratio; IC50 (Des1 [2]; read-out: half-maximal inhibitory concentration (IC50)): 100 to 250 nM; EC50 [3]: 600 nM
O=C(Nc1ccc(O)cn1)OC1CCCCC1 [Example 42, Cyclohexyl N-(5-hydroxypyridin-2-yl)carbamate]	81.4	35	–
O=C(Nc1ccc(O)cn1)N1CCN(c2ccccn2)CC1 [Example 17, N-(5-hydroxypyridin-2-yl)-4-(pyridin-2-yl) piperazine-1-carboxamide]	76.9	–	–
CCCCCCNC(=O)Nc1ccc(O)cn1 [Example 40, 1-Hexyl-3-(5-hydroxypyridin-2-yl)urea]	89.1	13	–
O=C(Nc1ccc(O)cn1)NC1CCN(c2ccc(Cl)cc2)CC1 [Example 52, 1-[1-(4-chlorophenyl)piperidin-4-yl]-3-(5-hydroxypyridin-2-yl)urea]	–	29	–
O=C(Nc1ccc(O)cn1)c1cccc(-c2ccccc2)c1 [Example 89, N-(5-hydroxypyridin-2-yl)-[1,1-biphenyl]-3-carboxamide]	93	2.9	–
CC(C)C1CCN(C(=O)Nc2ccc(O)cn2)CC1 [Example 9, N-(5-Hydroxypyridin-2-yl)-4-(propan-2-yl)piperidine-1-carboxamide]	93.8	17	–
O=C(NCc1ccc(Cl)cc1)Nc1ccc(O)cn1 [Example 76, 1-[(4-chlorophenyl)methyl]-3-(5-hydroxypyridin-2-yl)urea]	75.1	–	–

Second part, led by results:

inhibition at 0.5 µM (Des1 [2]; [4]) [%]	IC50 (Des1 [2]; [5]) [nM]	Structure (SMILES)	further results
91.5	60	O=C(Nc1ccc(O)cn1)N1CCN(Cc2ccc(F)cc2)CC1 [Example 38, 4-[(4-Fluorophenyl)methyl]-N-(5-hydroxypyridin-2-yl)piperazine-1-carboxamide]	–
83	–	O=C(Nc1ccc(O)cn1)N1CCN(c2ccc(F)nc2)CC1 [Example 50, 4-(6-fluoropyridin-3-yl)-N-(5-hydroxypyridin-2-yl) piperazine-1-carboxamide]	–
91.5	32 to 51	O=C(Nc1ccc(O)cn1)N1CCN(c2ccc(F)cc2)CC1 [Example 5, 4-(4-Fluorophenyl)-N-(5-hydroxypyridin-2-yl)piperazine-1-carboxamide]	–
–	64 to 94	O=C(Nc1ccc(O)cn1)N1CCN(c2ccc(F)cn2)CC1 [Example 24, 4-(5-fluoropyridin-2-yl)-N-(5-hydroxypyridin-2-yl)piperazine-1-carboxamide]	–
91.7	25	O=C(Nc1ccc(O)cn1)N1CCC(c2ccc(F)cc2)CC1 [Example 2, N-[5-[Hydroxy]pyridin-2-yl]-4-(4-fluorophenyl)piperidine-1-carboxamide]	–
–	14	O=C(Nc1ccc(O)cn1)N1CCN(c2ccc(Cl)cn2)CC1 [Example 22, 4-(5-chloropyridin-2-yl)-N-(5-hydroxypyridin-2-yl)piperazine-1-carboxamide]	–
